Patent US12410208B2, “(2-acetamidyl)thio-beta-D-galactopyranoside derivatives” (Idorsia Pharmaceuticals Ltd, priority 2020, dated 2025)
Like-named read-outs stand apart in the source and are kept apart here.

Tests used:
[1] = molecular target: biotinylated human Gal-3 (hGal-3) (Homo sapiens, UniProt P17931); test: Competitive binding assay: biotinylated hGal-3 binding to microplate-adsorbed asialofetuin (ASF), spectrophotometric
Procedure: If not explicitly mentioned otherwise, the inhibition data refer to the binding of biotinylated human Gal-3 (hGal-3).
(§1) Biological Assay Evaluation of Compound Inhibitory Activity (IC50)
The inhibitory activity of compounds is determined in competitive binding assays.
Briefly, compounds are serially diluted in DMSO (working dilutions).
(§2) Plates are incubated for 3 hours at 4° C., then washed with cold assay buffer (3×50 uL), incubated for 1 hour with 25 μL/well of a streptavidin-peroxidase solution (diluted in assay buffer to 80 ng/mL) at 4° C., followed by further washing steps with assay buffer (3×50 uL). Finally, 25 μL/well of ABTS substrate is added.
(§3) The calculated IC50 values may fluctuate depending on the daily assay performance. Fluctuations of this kind are known to those skilled in the art. IC50 values from several measurements are given as mean values.

human Gal-1 (hGal-1) = human Gal-1 (hGal-1) (Homo sapiens, UniProt P09382); test: Competitive binding assay: biotinylated hGal-1 binding to microplate-adsorbed asialofetuin (ASF), spectrophotometric; details: hGal-1 binding to asialofetuin; Table 15; R and S epimers of selected Examples also listed; read-out: IC50 (Galectin-1 inhibition)
Procedure: as §1
The inhibitory activity of compounds is determined in competitive binding assays. This spectrophotometric assay measures the binding of biotinylated human Gal-3 (hGal-3) or human Gal-1 (hGal-1), respectively, to a microplate-adsorbed glycoprotein, asialofetuin (ASF) (Proc Natl Acad Sci USA. 2013 Mar. 26; 110(13):5052-7.).
Briefly, compounds are serially diluted in DMSO (working dilutions). ASF-coated 384well plates are supplemented with 22.8 μL/well of biotinylated hGal-3 or hGal-1 in assay buffer (i.e. 300-1000 ng/mL biotinylated hGal-3 or hGal-1) to which 1.2 μL of compound working dilutions are added and mixed.
as §2, §3

[2] = Gal-3 inhibition, Table 3, read-out: IC50
[3] = Table 6, hGal-3, read-out: IC50 (Gal-3 inhibition)
[4] = Gal-3 inhibition, Table 5, read-out: IC50

human Gal-1 (hGal-1), sequence (P09382 whole entry): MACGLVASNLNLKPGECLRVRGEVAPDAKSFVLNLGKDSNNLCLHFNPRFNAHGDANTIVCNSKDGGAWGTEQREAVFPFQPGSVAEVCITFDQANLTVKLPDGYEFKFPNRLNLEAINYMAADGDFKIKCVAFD
biotinylated human Gal-3 (hGal-3), sequence (P17931 whole entry): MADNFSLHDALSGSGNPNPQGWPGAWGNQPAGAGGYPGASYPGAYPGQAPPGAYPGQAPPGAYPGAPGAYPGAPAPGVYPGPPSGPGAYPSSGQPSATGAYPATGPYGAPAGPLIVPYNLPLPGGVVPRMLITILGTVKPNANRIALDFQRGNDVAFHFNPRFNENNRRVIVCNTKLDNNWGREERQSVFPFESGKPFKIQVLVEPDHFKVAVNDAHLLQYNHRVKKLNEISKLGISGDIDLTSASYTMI

| SMILES | IC50 [1, 2] | IC50 (human Gal-1 (hGal-1)) | IC50 [1, 3] | IC50 [1, 4] |
| --- | --- | --- | --- | --- |
| CCN(C)C(=O)[C@@H](S[C@@H]1O[C@H](CO)[C@H](O)[C@H](n2cc(-c3cc(F)c(F)c(F)c3)nn2)[C@H]1O)C(C)(C)O [Example 2.31.203S., (S)-2-(((2S,3R,4S,5R,6R)-3,5-Dihydroxy-6-(hydroxymethyl)-4-(4-(3,4,5-trifluorophenyl)-1H-1,2,3-triazol-1-yl)tetrahydro-2H-pyran-2-yl)thio)-N-ethyl-3-hydroxy-N,3-dimethylbutanamide] | 70 nM | 240 nM |  |  |
| CC1CCN1C(=O)C(S[C@@H]1O[C@H](CO)[C@H](O)[C@H](n2cc(-c3cc(F)c(F)c(F)c3)nn2)[C@H]1O)C(C)(C)O (stereo partly drawn) [Example 2.31.204., 2-(((2S,3R,4S,5R,6R)-3,5-Dihydroxy-6-(hydroxymethyl)-4-(4-(3,4,5-trifluorophenyl)-1H-1,2,3-triazol-1-yl)tetrahydro-2H-pyran-2-yl)thio)-3-hydroxy-3-methyl-1-(2-methylazetidin-1-yl)butan-1-one] | 140 nM | 2800 nM |  |  |
| CC(C)(O)C(S[C@@H]1O[C@H](CO)[C@H](O)[C@H](n2cc(-c3cc(F)c(F)c(F)c3)nn2)[C@H]1O)C(=O)N1CCC1 (stereo partly drawn) [Example 2.31.206., 1-(Azetidin-1-yl)-2-(((2S,3R,4S,5R,6R)-3,5-dihydroxy-6-(hydroxymethyl)-4-(4-(3,4,5-trifluorophenyl)-1H-1,2,3-triazol-1-yl)tetrahydro-2H-pyran-2-yl)thio)-3-hydroxy-3-methylbutan-1-one] | 200 nM | 1400 nM |  |  |
| CN(Cc1ccccc1)C(=O)C(S[C@@H]1O[C@H](CO)[C@H](O)[C@H](n2cc(-c3cc(F)c(F)c(F)c3)nn2)[C@H]1O)C(C)(C)O (stereo partly drawn) [Example 2.31.207., N-Benzyl-2-(((2S,3R,4S,5R,6R)-3,5-dihydroxy-6-(hydroxymethyl)-4-(4-(3,4,5-trifluorophenyl)-1H-1,2,3-triazol-1-yl)tetrahydro-2H-pyran-2-yl)thio)-3-hydroxy-N,3-dimethylbutanamide] |  | 570 nM | 60 nM |  |
| CC(C)(O)C(S[C@@H]1O[C@H](CO)[C@H](O)[C@H](n2cc(-c3cc(F)c(F)c(F)c3)nn2)[C@H]1O)C(=O)N1CCCCC1 (stereo partly drawn) [Example 2.31.208., 2-(((2S,3R,4S,5R,6R)-3,5-Dihydroxy-6-(hydroxymethyl)-4-(4-(3,4,5-trifluorophenyl)-1H-1,2,3-triazol-1-yl)tetrahydro-2H-pyran-2-yl)thio)-3-hydroxy-3-methyl-1-(piperidin-1-yl)butan-1-one] |  | 30 nM | 70 nM |  |
| CN(Cc1cn(C)cn1)C(=O)C(S[C@@H]1O[C@H](CO)[C@H](O)[C@H](n2cc(-c3cc(F)c(F)c(F)c3)nn2)[C@H]1O)C(C)(C)O (stereo partly drawn) [Example 2.31.215., 2-(((2S,3R,4S,5R,6R)-3,5-Dihydroxy-6-(hydroxymethyl)-4-(4-(3,4,5-trifluorophenyl)-1H-1,2,3-triazol-1-yl)tetrahydro-2H-pyran-2-yl)thio)-3-hydroxy-N,3-dimethyl-N-((1-methyl-1H-imidazol-4-yl)methyl)butanamide] |  | 1680 nM | 190 nM |  |
| CN(CC1CC1)C(=O)C(S[C@@H]1O[C@H](CO)[C@H](O)[C@H](n2cc(-c3cc(F)c(F)c(F)c3)nn2)[C@H]1O)C(C)(C)O (stereo partly drawn) [Example 2.31.218., N-(Cyclopropylmethyl)-2-(((2S,3R,4S,5R,6R)-3,5-dihydroxy-6-(hydroxymethyl)-4-(4-(3,4,5-trifluorophenyl)-1H-1,2,3-triazol-1-yl)tetrahydro-2H-pyran-2-yl)thio)-3-hydroxy-N,3-dimethylbutanamide] |  | 220 nM | 30 nM |  |
| CN(CC(C)(C)C)C(=O)C(S[C@@H]1O[C@H](CO)[C@H](O)[C@H](n2cc(-c3cc(F)c(F)c(F)c3)nn2)[C@H]1O)C(C)(C)O (stereo partly drawn) [Example 2.31.228., 2-(((2S,3R,4S,5R,6R)-3,5-Dihydroxy-6-(hydroxymethyl)-4-(4-(3,4,5-trifluorophenyl)-1H-1,2,3-triazol-1-yl)tetrahydro-2H-pyran-2-yl)thio)-3-hydroxy-N,3-dimethyl-N-neopentylbutanamide] |  | 1650 nM | 670 nM |  |
| COCCN(C)C(=O)C(S[C@@H]1O[C@H](CO)[C@H](O)[C@H](n2cc(-c3cc(F)c(F)c(F)c3)nn2)[C@H]1O)C(C)(C)O (stereo partly drawn) [Example 2.31.229., 2-(((2S,3R,4S,5R,6R)-3,5-Dihydroxy-6-(hydroxymethyl)-4-(4-(3,4,5-trifluorophenyl)-1H-1,2,3-triazol-1-yl)tetrahydro-2H-pyran-2-yl)thio)-3-hydroxy-N-(2-methoxyethyl)-N,3-dimethylbutanamide] |  | 800 nM | 110 nM |  |
| CN(CCN1CCOCC1)C(=O)C(S[C@@H]1O[C@H](CO)[C@H](O)[C@H](n2cc(-c3cc(F)c(F)c(F)c3)nn2)[C@H]1O)C(C)(C)O (stereo partly drawn) [Example 2.31.230., 2-(((2S,3R,4S,5R,6R)-3,5-Dihydroxy-6-(hydroxymethyl)-4-(4-(3,4,5-trifluorophenyl)-1H-1,2,3-triazol-1-yl)tetrahydro-2H-pyran-2-yl)thio)-3-hydroxy-N,3-dimethyl-N-(2-morpholinoethyl)butanamide] |  | 1250 nM | 110 nM |  |
| CCN(C)C(=O)C(S[C@@H]1O[C@H](CO)[C@H](O)[C@H](n2cc(-c3cc(F)c(F)c(F)c3)nn2)[C@H]1O)C(O)(CC)CC (stereo partly drawn) [Example 2.32.203., 2-(((2S,3R,4S,5R,6R)-3,5-Dihydroxy-6-(hydroxymethyl)-4-(4-(3,4,5-trifluorophenyl)-1H-1,2,3-triazol-1-yl)tetrahydro-2H-pyran-2-yl)thio)-N,3-diethyl-3-hydroxy-N-methylpentanamide] |  | 1890 nM | 490 nM |  |
| CCN(C)C(=O)[C@H](S[C@@H]1O[C@H](CO)[C@H](O)[C@H](n2cc(-c3cc(F)c(F)c(F)c3)nn2)[C@H]1O)C(O)(CC)CC [Example 2.32.203R., (R)-2-(((2S,3R,4S,5R,6R)-3,5-Dihydroxy-6-(hydroxymethyl)-4-(4-(3,4,5-trifluorophenyl)-1H-1,2,3-triazol-1-yl)tetrahydro-2H-pyran-2-yl)thio)-N,3-diethyl-3-hydroxy-N-methylpentanamide] |  | 30800 nM | 4550 nM |  |
| CCN(C)C(=O)[C@@H](S[C@@H]1O[C@H](CO)[C@H](O)[C@H](n2cc(-c3cc(F)c(F)c(F)c3)nn2)[C@H]1O)C(O)(CC)CC [Example 2.32.203S., (S)-2-(((2S,3R,4S,5R,6R)-3,5-Dihydroxy-6-(hydroxymethyl)-4-(4-(3,4,5-trifluorophenyl)-1H-1,2,3-triazol-1-yl)tetrahydro-2H-pyran-2-yl)thio)-N,3-diethyl-3-hydroxy-N-methylpentanamide] |  | 730 nM | 240 nM |  |
| CCC(O)(CC)C(S[C@@H]1O[C@H](CO)[C@H](O)[C@H](n2cc(-c3cc(F)c(F)c(F)c3)nn2)[C@H]1O)C(=O)N(C)CC1CC1 (stereo partly drawn) [Example 2.32.218., N-(Cyclopropylmethyl)-2-(((2S,3R,4S,5R,6R)-3,5-dihydroxy-6-(hydroxymethyl)-4-(4-(3,4,5-trifluorophenyl)-1H-1,2,3-triazol-1-yl)tetrahydro-2H-pyran-2-yl)thio)-3-ethyl-3-hydroxy-N-methylpentanamide] |  | 1130 nM | 710 nM |  |
| CCC(O)(CC)C(S[C@@H]1O[C@H](CO)[C@H](O)[C@H](n2cc(-c3cc(F)c(F)c(F)c3)nn2)[C@H]1O)C(=O)N(C)CC(C)(C)F (stereo partly drawn) [Example 2.32.222., 2-(((2S,3R,4S,5R,6R)-3,5-Dihydroxy-6-(hydroxymethyl)-4-(4-(3,4,5-trifluorophenyl)-1H-1,2,3-triazol-1-yl)tetrahydro-2H-pyran-2-yl)thio)-3-ethyl-N-(2-fluoro-2-methylpropyl)-3-hydroxy-N-methylpentanamide] |  | 2060 nM | 360 nM |  |
| CCN(C)C(=O)[C@H](S[C@@H]1O[C@H](CO)[C@H](O)[C@H](n2cc(-c3cc(F)c(F)c(F)c3)nn2)[C@H]1O)C1(O)CC(F)(F)C1 [Example 2.33.203R., (R)-2-(3,3-Difluoro-1-hydroxycyclobutyl)-2-(((2S,3R,4S,5R,6R)-3,5-dihydroxy-6-(hydroxymethyl)-4-(4-(3,4,5-trifluorophenyl)-1H-1,2,3-triazol-1-yl)tetrahydro-2H-pyran-2-yl)thio)-N-ethyl-N-methylacetamide] |  | 4200 nM |  | 1450 nM |
| CCN(C)C(=O)[C@@H](S[C@@H]1O[C@H](CO)[C@H](O)[C@H](n2cc(-c3cc(F)c(F)c(F)c3)nn2)[C@H]1O)C1(O)CC(F)(F)C1 [Example 2.33.203S., (S)-2-(3,3-Difluoro-1-hydroxycyclobutyl)-2-(((2S,3R,4S,5R,6R)-3,5-dihydroxy-6-(hydroxymethyl)-4-(4-(3,4,5-trifluorophenyl)-1H-1,2,3-triazol-1-yl)tetrahydro-2H-pyran-2-yl)thio)-N-ethyl-N-methylacetamide] |  | 110 nM |  | 50 nM |
